Experimental data from US11051515B2, “3-acyl-benzamides and their use as herbicides” (Bayer Aktiengesellschaft, priority 2017, dated 2021).

What was measured:
CYPES = assay: Pre-emergence action against CYPES; assay type: in vivo, Cyperus esculentus; details: Cyperus esculentus, 504 h; pre-emergence, dosage 320 g/ha, scored visually after 3 weeks vs untreated controls; read-out: Pre-emergence action against CYPES (herbicidal activity)
Method in brief: (§1)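 Seeds sown in sandy loam in wood-fiber pots and covered with soil. Greenhouse growth; visual damage scored after 3 weeks versus untreated controls (100% = dead, 0% = like control).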

ECHCG [1] = assay: Pre-emergence action against ECHCG; assay type: in vivo, Echinochloa crus-galli
Method in brief: as §1

SETVI [2] = assay: Pre-emergence action against SETVI; assay type: in vivo, Setaria viridis; details: Setaria viridis, 504 h; pre-emergence, dosage 320 g/ha, scored visually after 3 weeks vs untreated controls; read-out: SETVI (Table B8, pre-emergence herbicidal activity)
Method in brief: as §1

ABUTH [3] = assay: Pre-emergence action against ABUTH; assay type: in vivo, Abutilon theophrasti; details: Abutilon theophrasti, 504 h; pre-emergence, dosage 320 g/ha, scored visually after 3 weeks vs untreated controls; read-out: Pre-emergence action against ABUTH (herbicidal activity)
Method in brief: as §1

AMARE [4] = assay: Pre-emergence action against AMARE; assay type: in vivo, Amaranthus retroflexus
Method in brief: as §1

MATIN [5] = assay: Pre-emergence action against MATIN; assay type: in vivo, Matricaria inodora; details: for Herbicidal efficacy against MATIN: 20 g of a.i./ha
Method in brief: as §1

POLCO [6] = assay: Pre-emergence action against POLCO; assay type: in vivo, Polygonum convolvulus; details: Fallopia convolvulus, 504 h; Dosage 320 g/ha, pre-emergence
Method in brief: as §1

STEME [7] = assay: Pre-emergence action against STEME; assay type: in vivo, Stellaria media
Method in brief: as §1

VIOTR [8] = assay: Pre-emergence action against VIOTR; assay type: in vivo, Viola tricolor; details: for Herbicidal efficacy against VIOTR: 20 g of a.i./ha
Method in brief: as §1

VERPE [9] = assay: Pre-emergence action against VERPE; assay type: in vivo, Veronica persica
Method in brief: as §1

ALOMY = assay: Post-emergence action against ALOMY; assay type: in vivo, Alopecurus myosuroides; details: Alopecurus myosuroides, 504 h; Dosage 80 g/ha, post-emergence
Protocol: Seeds of monocotyledonous and dicotyledonous weed and crop plants are laid out in sandy loam soil in wood-fiber pots, covered with soil and cultivated in a greenhouse under good growth conditions. 2 to 3 weeks after sowing, the test plants are treated at the one-leaf stage. The compounds of the invention, formulated in the form of wettable powders (WP) or as emulsion concentrates (EC), are then sprayed onto the green parts of the plants in the form of an aqueous suspension or emulsion at a water application rate equating to […], with addition of 0.2% wetting agent. After the test plants have been left to stand in the greenhouse under optimal growth conditions for about 3 weeks, the action of the preparations is assessed visually in comparison to untreated controls (herbicidal action in percent (%): 100% activity=the plants have died, 0% activity=like control plants). […] At the same time, inventive compounds leave Gramineae crops such as barley, wheat, rye, millet/Sorghum, corn or rice virtually undamaged when applied post-emergence, even at high active ingredient dosages. In addition, some substances are also harmless to dicotyledonous crops such as soya, cotton, oilseed rape, sugar beet or potatoes. Some of the compounds according to the invention have high selectivity and are therefore suitable for controlling unwanted vegetation in agricultural crops by the post-emergence method. The data of Tables B18 to B34 below illustrate, in an exemplary manner, the […] herbicidal action of the compounds according to the invention, the herbicidal activity being stated in percent.

AVEFA = assay: Post-emergence action against AVEFA; assay type: in vivo, Avena fatua; details: Avena fatua, 504 h; post-emergence, dosage 80 g/ha, visual assessment about 3 weeks after treatment vs untreated controls; read-out: Post-emergence action against AVEFA (herbicidal action in percent)
Method in brief: (§2)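 Post-emergence foliar spray on greenhouse plants at the one-leaf stage, using wettable-powder or emulsion-concentrate formulations in water (600 to […], plus 0.2% wetting agent). Damage scored by eye roughly 3 weeks later against untreated plants: 0% = like control, 100% = dead.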

ECHCG [10] = assay: Post-emergence action against ECHCG; assay type: in vivo, Echinochloa crus-galli; details: Echinochloa crus-galli, 504 h; post-emergence, dosage 80 g/ha, visual assessment about 3 weeks after treatment vs untreated controls; read-out: Post-emergence action against ECHCG (herbicidal action in percent)
Method in brief: as §2

SETVI [11] = assay: Post-emergence action against SETVI; assay type: in vivo, Setaria viridis; details: Setaria viridis, 504 h; post-emergence, dosage 80 g/ha, visual assessment about 3 weeks after treatment vs untreated controls; read-out: Post-emergence action against SETVI (herbicidal action in percent)
Method in brief: as §2

ABUTH [12] = assay: Post-emergence action against ABUTH; assay type: in vivo, Abutilon theophrasti; details: Abutilon theophrasti, 504 h; post-emergence, dosage 80 g/ha, visual assessment about 3 weeks after treatment vs untreated controls; read-out: Post-emergence action against ABUTH (herbicidal action in percent)
Method in brief: as §2

AMARE [13] = assay: Post-emergence action against AMARE; assay type: in vivo, Amaranthus retroflexus; details: Amaranthus retroflexus, 504 h; post-emergence, dosage 80 g/ha, visual assessment about 3 weeks after treatment vs untreated controls; read-out: Post-emergence action against AMARE (herbicidal action in percent)
Method in brief: as §2

MATIN [14] = assay: Post-emergence action against MATIN; assay type: in vivo, Matricaria inodora
Method in brief: as §2

PHBPU = assay: Post-emergence action against PHBPU; assay type: in vivo, Pharbitis purpurea; details: Ipomoea purpurea, 504 h; post-emergence, dosage 80 g/ha
Method in brief: as §2

POLCO [15] = assay: Post-emergence action against POLCO; assay type: in vivo, Polygonum convolvulus; details: Fallopia convolvulus, 504 h; post-emergence, dosage 80 g/ha
Method in brief: as §2

STEME [16] = assay: Post-emergence action against STEME; assay type: in vivo, Stellaria media; details: Stellaria media, 504 h; post-emergence, dosage 80 g/ha
Method in brief: as §2

VIOTR [17] = assay: Post-emergence action against VIOTR; assay type: in vivo, Viola tricolor
Method in brief: as §2

VERPE [18] = assay: Post-emergence action against VERPE; assay type: in vivo, Veronica persica; details: Veronica persica, 504 h, dosage 80 g/ha
Method in brief: as §2

[19] = Table V8, pre-emergence, 20 g of a.i./ha
[20] = Table V17, post-emergence, 5 g of a.i./ha

CC(=O)c1c(S(C)(=O)=O)ccc(C(=O)Nc2nnnn2C)c1C [1-7]
pest or weed control at 320 g/ha (CYPES): 100% | pest or weed control at 320 g/ha (ECHCG [1]; Echinochloa crus-galli, 504 h, pre-emergence, dosage 320 g/ha, scored visually after 3 weeks vs untreated controls, read-out: Pre-emergence action against ECHCG (herbicidal activity)): 100% | Herbicidal efficacy against ECHCG (ECHCG [1]; [19]): 70 | pest or weed control at 320 g/ha (SETVI [2]): 100% | pest or weed control at 320 g/ha (ABUTH [3]): 100% | pest or weed control at 320 g/ha (AMARE [4]; Amaranthus retroflexus, 504 h, pre-emergence, dosage 320 g/ha, scored visually after 3 weeks vs untreated controls, read-out: Pre-emergence action against AMARE (herbicidal activity)): 100% | Herbicidal efficacy against AMARE (AMARE [4]; [19]): 100 | Herbicidal efficacy against MATIN (MATIN [5]; Table V5, pre-emergence): 90 | Herbicidal efficacy against MATIN (MATIN [5]; Table V8, pre-emergence): 90 | pest or weed control at 320 g/ha (MATIN [5]; Tripleurospermum inodorum, 504 h, Dosage 320 g/ha, pre-emergence): 100% | pest or weed control at 320 g/ha (POLCO [6]): 80% | pest or weed control at 320 g/ha (STEME [7]; Stellaria media, 504 h, Dosage 320 g/ha, pre-emergence): 90% | Herbicidal efficacy against STEME (STEME [7]; [19]): 90 | Herbicidal efficacy against VIOTR (VIOTR [8]; Table V5, pre-emergence): 100 | Herbicidal efficacy against VIOTR (VIOTR [8]; Table V8, pre-emergence): 100 | pest or weed control at 320 g/ha (VIOTR [8]; Viola tricolor, 504 h, Dosage 320 g/ha, pre-emergence): 100% | Herbicidal efficacy against VERPE (VERPE [9]; [19]): 100 | pest or weed control at 320 g/ha (VERPE [9]; Veronica persica, 504 h, Dosage 320 g/ha, pre-emergence): 100% | pest or weed control at 80 g/ha (ALOMY): 80% | pest or weed control at 80 g/ha (AVEFA): 80% | pest or weed control at 80 g/ha (ECHCG [10]): 90% | pest or weed control at 80 g/ha (SETVI [11]): 90% | pest or weed control at 80 g/ha (ABUTH [12]): 90% | pest or weed control at 80 g/ha (AMARE [13]): 100% | Herbicidal efficacy against MATIN (MATIN [14]; [20]): 100 | pest or weed control at 80 g/ha (MATIN [14]; Tripleurospermum inodorum, 504 h, post-emergence, dosage 80 g/ha, visual assessment about 3 weeks after treatment vs untreated controls, read-out: Post-emergence action against MATIN (herbicidal action in percent)): 100% | pest or weed control at 80 g/ha (PHBPU): 100% | pest or weed control at 80 g/ha (POLCO [15]): 80% | pest or weed control at 80 g/ha (STEME [16]): 100% | Herbicidal efficacy against VIOTR (VIOTR [17]; [20]): 100 | pest or weed control at 80 g/ha (VIOTR [17]; Viola tricolor, 504 h, post-emergence, dosage 80 g/ha): 100% | pest or weed control at 80 g/ha (VERPE [18]): 100%
